This series in a line: Solubility in water. It is filed as physicochemical.

Converted amounts (≈) assume the structure as drawn. Residues, ends and D or L forms follow the SMILES beside them.

In the case of `CC(C)C[C@H](NC(=O)[C@H](CCC(=O)O)NC(=O)[C@H](CCC(N)=O)NC(=O)[C@H](Cc1ccccc1)NC(=O)[C@H](CCCNC(=N)N)NC(=O)[C@@H](NC(=O)[C@H](Cc1ccccc1)NC(=O)[C@H](CCCCN)NC(=O)[C@H](CCC(N)=O)NC(=O)[C@H](CCCNC(=N)N)NC(=O)CNC(=O)[C@H](CCC(=O)O)NC(=O)[C@@H](N)CC(=O)O)C(C)C)C(=O)N[C@@H](C)C(=O)N[C@H](C(=O)O)C(C)C` [P34] (H-DEGRQKFVRFQELAV-OH; N-terminus and C-terminus assumed), the solubility (commonly the concentration that dissolves in the medium under given conditions) stood at 1000 µg/mL (≈ 549 µM).
For `CC(C)C[C@H](NC(=O)[C@H](C)NC(=O)[C@H](CCC(N)=O)NC(=O)[C@H](Cc1c[nH]cn1)NC(=O)[C@H](CO)NC(=O)[C@H](Cc1ccc(O)cc1)NC(=O)[C@H](Cc1ccccc1)NC(=O)CNC(=O)[C@H](CC(N)=O)NC(=O)[C@@H](N)CCC(N)=O)C(=O)N[C@@H](Cc1c[nH]cn1)C(=O)N[C@@H](C)C(=O)N[C@@H](Cc1c[nH]c2ccccc12)C(=O)N[C@@H](Cc1c[nH]cn1)C(=O)N[C@@H](CCCNC(=N)N)C(=O)O` [P25] (H-QNGFYSHQALHAWHR-OH; N-terminus and C-terminus assumed) the value was 10000 µg/mL (≈ 5400 µM).

Source of the values: US12667602B2, “Composition for preventing, treating or alleviating diabetes, comprising LGI3-derived peptide as an active ingredient” (CHUNG-ANG UNIVERSITY INDUSTRY-ACADEMIC COOPERATION …, priority 2019, dated 2026).
